Reference: US10870832B2, “Use of small molecules to enhance MAFA expression in pancreatic endocrine cells” (Janssen Biotech, Inc., priority 2014, dated 2020)

Columns and labels:
Format in all cases: cell-based, human
MAFA expression [1] = test: Stage 7 treatment, real-time PCR of MAFA (Example 7); conditions: Stage 7, day 14, 2 μM R428 or 2-5 μM inhibitor substituted for R428, H1-derived cells, mRNA
Method: (§1) Cells of the human embryonic stem cell line H1 (WA01) were seeded as single cells at 1×10^5 cells/cm^2 on MATRIGEL™ (1:30 dilution) coated dishes in E8 media. At about 70 to 80% confluency, the cultures were washed in 1× incomplete DPBS followed by incubation with 1× TrypLE™ Express Enzyme for 3 to 5 minutes at 37° C. The released cells were rinsed with E8 and spun at 1000 rpm for 5 minutes. The resulting cell pellet was resuspended in E8 supplemented with 10 μM Y-27632 and the single cell suspension was seeded at approximately 1.3 to 1.5×10^5 cells/cm^2. The cultures were fed every day with E8 medium and differentiation, according to the following protocol, was initiated 48 hrs. following seeding resulting in an about 90% starting confluency.
Stage 6 cells were cultured for fourteen days in BLAR medium supplemented with a 1:100 dilution of ITS-X; 20 mM glucose (final); 1.5 g/L sodium bicarbonate; 2% FAF-BSA; 10 μg/ml of heparin, 10 μM ZnSO4, 1 μM T3 as 3,3′, 5-triiodo-L-thyronine sodium salt, 10 μM ALK5 inhibitor II, 1 mM N-acetyl cysteine. Some cultures also included one of 2 μM R428, 2-5 μM RSK inhibitor II (2-(3,5-Difluoro-4-hydroxy-anilino)-8-isopentyl-5,7-dimethyl-7H-pteridin-6-one) (EMD Millipore; Catalog No, 559286-5MG), 2-5 μM aurora kinase inhibitor II (EMD Millipore, or a combination of 2-5 μM RSK inhibitor II and 2-5 μM aurora kinase II inhibitor.
At Stage 7, day 14, mRNA was collected and compared to undifferentiated human stem cells.

MAFA expression [2] = test: Small molecule screen at Stage 6 or 7, real-time PCR (Example 2); conditions: added at Stage 6, 1 μM, H1-derived cells at air-liquid interface
Method: Cells of the human embryonic stem cell line H1 (WA01) at passage 42 were seeded as single cells at 1×10^5 cells/cm^2 on MATRIGEL™ (1:30 dilution)-coated dishes in a media comprising of DMEM-F12, GlutaMAX™ (1:100 dilution), 0.25 mM ascorbic acid, 100 ng/ml of FGF2 (R & D systems, MN), 1 ng/ml of TGF-β, ITS-X (1:100 dilution), 2% FAF-BSA, and 20 ng/ml of IGF-1, supplemented with 10 μM of Y-27632. Forty-eight hours post-seeding, the cultures were washed in incomplete PBS (phosphate buffered saline without Mg or Ca) followed by incubation with 1× TrypLE™ Express Enzyme (Life Science; Catalog No. 14190) for 3 to 5 minutes at 37° C. The released cells were rinsed with DMEM-F12 and spun at 1000 rpm for 5 minutes. The resulting cell pellet was resuspended in DMEM-F12 supplemented with 10 μM Y-27632, 1× GlutaMAX™, 0.25 mM ascorbic acid, 100 ng/ml FGF2, 1 ng/ml TGF-β, ITS-X at a 1:100 dilution, 2% FAF-BSA and 20 ng/ml of IGF-1 and the single cell suspension was seeded at approximately 1.3 to 1.5×10^5 cells/cm^2. The cultures were fed every day with medium and differentiation, according to the following protocol, was initiated 48 hours following seeding resulting in an about 90% starting confluency. […]
At Stages 6 or 7, various small molecules were added and their effect was evaluated by real-time PCR.

UCN3 expression = test: Stage 7 treatment, real-time PCR of UCN3 (Example 6); conditions: Stage 7, day 7, 2 μM in Stage 7 medium, H1-derived cells, mRNA
Method: as §1, with “TrypLET™” for “TrypLE™”
(§2) Stage 6 cells were cultured for seven days in BLAR medium supplemented with a 1:100 dilution of ITS-X; 20 mM glucose (final); 1.5 g/L sodium bicarbonate; 2% FAF-BSA; 10 μg/ml of heparin, 10 μM ZnSO4, 1 μM T3 as 3,3′, 5-triiodo-L-thyronine sodium salt, 10 μM ALK5 inhibitor II, 1 mM N-acetyl cysteine. […]
(§3) At Stage 7, day 7, mRNA was collected and expression of MAFA, UCN3, PDX1, NKX6.1, insulin and G6PC2 evaluated as compared to undifferentiated human stem cells. […]

MAFA expression [3] = test: Stage 7 treatment, real-time PCR of MAFA (Example 6); conditions: Stage 7, day 7, 2 μM in Stage 7 medium, H1-derived cells, mRNA
Method: as §1, with “TrypLET™” for “TrypLE™”
as §2, §3

G6PC2 expression = test: Stage 7 treatment, real-time PCR of G6PC2 (Example 6); conditions: Stage 7, day 7, 2 μM in Stage 7 medium, H1-derived cells, mRNA
Method: as §1, with “TrypLET™” for “TrypLE™”
as §2, §3

Row | SMILES | MAFA expression (MAFA expression [1]) | expression of MAFA as compared to untreated cultures (MAFA expression [2]) | UCN3 expression (UCN3 expression) | MAFA expression (MAFA expression [3]) | G6PC2 expression (G6PC2 expression)
1 | CC(C)CCN1c2nc(Nc3cc(F)c(O)c(F)c3)ncc2N(C)C(=O)C1C (racemic) [RSK inhibitor, 2-(3,5-Difluoro-4-hydroxy-anilino)-8-isopentyl-5,7-dimethyl-7H-pteridin-6-one] | restored MAFA expression | – | – | – | –
2 | CC(C)N(C[C@H]1O[C@@H](n2cnc3c(N)ncnc32)[C@H](O)[C@@H]1O)[C@H]1C[C@@H](CCc2nc3ccc(C(C)(C)C)cc3[nH]2)C1 [EPZ-5676, 9H-Purin-6-amine, 9-[5-deoxy-5-[[cis-3-[2-[6-(1,1-dimethylethyl)-1H-benzimidazol-2-yl]ethyl]cyclobutyl](1-methylethyl)amino]-β-D-ribofuranosyl]-] | – | significantly upregulated | – | – | –
3 | COc1cc2ncnc(Nc3ccc(NC(=O)c4ccccc4)cc3)c2cc1OC [aurora kinase inhibitor II, 4-(4′-Benzamidoanilino)-6,7-dimethoxyquinazoline] | restored MAFA expression | – | maintenance of UCN3 and G6PC2 expression | increase in MAFA expression | maintenance of UCN3 and G6PC2 expression
